Assay results: ChEMBL document CHEMBL1131100, “2-Iminopyrrolidines as potent and selective inhibitors of human inducible nitric oxide synthase” (J Med Chem, 1998)

Tests used:
Nitric oxide synthase 1 [1] = molecular target: T1, Nitric oxide synthase 1 (Homo sapiens, UniProt P29475); test: Inhibition of cloned (from RNA) human Neuronal nitric oxide synthase
Nitric oxide synthase 3 = molecular target: T2, Nitric oxide synthase 3 (Homo sapiens, UniProt P29474); test: Inhibition of cloned (from RNA) human endothelial constitutive Endothelial nitric oxide synthase (heNOS)
T2 sequence (P29474 whole entry): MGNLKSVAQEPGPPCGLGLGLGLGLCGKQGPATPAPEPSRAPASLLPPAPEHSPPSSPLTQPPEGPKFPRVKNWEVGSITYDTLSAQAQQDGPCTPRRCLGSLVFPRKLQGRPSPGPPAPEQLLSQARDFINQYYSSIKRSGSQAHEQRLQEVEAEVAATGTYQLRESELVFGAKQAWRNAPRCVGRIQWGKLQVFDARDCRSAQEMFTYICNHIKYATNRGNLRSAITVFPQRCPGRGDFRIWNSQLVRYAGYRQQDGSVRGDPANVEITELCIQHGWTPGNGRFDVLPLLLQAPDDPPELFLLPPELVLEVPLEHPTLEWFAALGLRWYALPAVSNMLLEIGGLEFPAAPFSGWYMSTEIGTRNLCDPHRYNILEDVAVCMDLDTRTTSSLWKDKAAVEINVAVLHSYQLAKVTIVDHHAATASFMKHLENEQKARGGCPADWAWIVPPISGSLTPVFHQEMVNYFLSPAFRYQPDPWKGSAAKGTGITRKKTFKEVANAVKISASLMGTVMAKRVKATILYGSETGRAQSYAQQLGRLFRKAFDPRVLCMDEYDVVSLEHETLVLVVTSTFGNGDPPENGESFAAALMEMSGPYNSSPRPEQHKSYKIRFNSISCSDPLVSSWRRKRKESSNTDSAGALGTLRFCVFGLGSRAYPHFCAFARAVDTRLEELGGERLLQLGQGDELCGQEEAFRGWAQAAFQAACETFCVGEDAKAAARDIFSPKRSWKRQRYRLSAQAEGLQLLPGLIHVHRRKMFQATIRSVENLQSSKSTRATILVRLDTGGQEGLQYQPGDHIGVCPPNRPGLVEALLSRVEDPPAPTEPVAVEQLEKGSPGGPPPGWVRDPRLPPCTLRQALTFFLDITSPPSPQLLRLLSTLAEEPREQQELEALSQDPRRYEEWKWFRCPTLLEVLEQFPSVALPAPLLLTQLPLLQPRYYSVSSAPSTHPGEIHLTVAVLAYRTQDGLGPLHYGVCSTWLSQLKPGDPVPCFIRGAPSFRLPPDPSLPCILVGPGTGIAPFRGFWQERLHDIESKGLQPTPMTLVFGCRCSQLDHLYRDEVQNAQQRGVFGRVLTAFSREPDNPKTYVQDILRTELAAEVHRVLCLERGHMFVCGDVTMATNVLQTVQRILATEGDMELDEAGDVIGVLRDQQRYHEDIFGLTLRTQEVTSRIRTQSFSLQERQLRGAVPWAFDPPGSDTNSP

[2] = molecular target: T3, Nitric oxide synthase, inducible (Homo sapiens, UniProt P35228); test: Inhibition of cloned (from RNA) human inducible nitric oxide synthase (hiNOS)
Nitric oxide synthase 1 [3] = molecular target: T1, Nitric oxide synthase 1; test: Inhibition of cloned (from RNA) human Neuronal nitric oxide synthase at 100 uM
[4] = molecular target: T3, Nitric oxide synthase, inducible; test: Inhibition of cloned (from RNA) human inducible nitric oxide synthase (hiNOS)at 100 uM
[5] = molecular target: T4, Nitric oxide synthase 3 (Homo sapiens) (UniProt P29474); test: Inhibition of cloned (from RNA) human endothelial constitutive Endothelial nitric oxide synthase (heNOS) at 100 uM
T4 sequence (whole entry): T2 sequence (P29474 whole entry)

[6] = molecular target: T3, Nitric oxide synthase, inducible; test: Inhibition of cloned (from RNA) human inducible nitric oxide synthase (hiNOS) at 100 uM
[7] = molecular target: T4, Nitric oxide synthase 3 (Homo sapiens); test: Inhibition of cloned (from RNA) human endothelial constitutive Endothelial nitric oxide synthase (heNOS)at 100 uM

T3 sequence (P35228 whole entry): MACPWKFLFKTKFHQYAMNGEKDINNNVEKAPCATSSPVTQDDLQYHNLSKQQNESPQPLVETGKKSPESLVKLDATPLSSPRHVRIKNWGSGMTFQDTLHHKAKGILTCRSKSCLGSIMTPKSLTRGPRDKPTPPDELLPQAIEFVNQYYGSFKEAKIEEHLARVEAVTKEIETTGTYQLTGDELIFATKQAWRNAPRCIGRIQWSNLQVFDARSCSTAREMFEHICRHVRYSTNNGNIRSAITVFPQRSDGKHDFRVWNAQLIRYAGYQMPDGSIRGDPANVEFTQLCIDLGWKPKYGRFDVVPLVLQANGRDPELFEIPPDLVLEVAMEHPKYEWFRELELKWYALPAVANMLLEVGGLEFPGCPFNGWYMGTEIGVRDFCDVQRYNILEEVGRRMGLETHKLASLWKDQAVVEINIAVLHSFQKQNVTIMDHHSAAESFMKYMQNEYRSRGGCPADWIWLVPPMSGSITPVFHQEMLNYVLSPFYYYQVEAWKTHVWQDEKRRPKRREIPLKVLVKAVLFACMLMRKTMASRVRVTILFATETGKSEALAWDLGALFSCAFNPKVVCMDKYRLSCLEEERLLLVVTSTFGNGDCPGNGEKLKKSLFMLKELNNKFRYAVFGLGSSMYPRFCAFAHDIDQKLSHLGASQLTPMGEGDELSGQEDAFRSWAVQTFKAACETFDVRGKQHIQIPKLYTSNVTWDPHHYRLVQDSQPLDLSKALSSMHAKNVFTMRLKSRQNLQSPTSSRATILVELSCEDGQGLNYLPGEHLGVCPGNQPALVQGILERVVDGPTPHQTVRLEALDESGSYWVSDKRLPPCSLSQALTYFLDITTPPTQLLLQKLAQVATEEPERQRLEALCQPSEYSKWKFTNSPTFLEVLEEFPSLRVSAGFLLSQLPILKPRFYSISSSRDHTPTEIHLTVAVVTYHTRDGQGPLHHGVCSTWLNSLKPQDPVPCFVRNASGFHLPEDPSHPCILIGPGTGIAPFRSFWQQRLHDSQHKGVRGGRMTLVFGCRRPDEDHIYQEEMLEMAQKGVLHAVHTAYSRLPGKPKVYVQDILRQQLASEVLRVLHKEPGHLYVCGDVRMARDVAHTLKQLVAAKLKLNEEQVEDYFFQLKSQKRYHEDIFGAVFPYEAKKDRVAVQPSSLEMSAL
T1 sequence (P29475 whole entry): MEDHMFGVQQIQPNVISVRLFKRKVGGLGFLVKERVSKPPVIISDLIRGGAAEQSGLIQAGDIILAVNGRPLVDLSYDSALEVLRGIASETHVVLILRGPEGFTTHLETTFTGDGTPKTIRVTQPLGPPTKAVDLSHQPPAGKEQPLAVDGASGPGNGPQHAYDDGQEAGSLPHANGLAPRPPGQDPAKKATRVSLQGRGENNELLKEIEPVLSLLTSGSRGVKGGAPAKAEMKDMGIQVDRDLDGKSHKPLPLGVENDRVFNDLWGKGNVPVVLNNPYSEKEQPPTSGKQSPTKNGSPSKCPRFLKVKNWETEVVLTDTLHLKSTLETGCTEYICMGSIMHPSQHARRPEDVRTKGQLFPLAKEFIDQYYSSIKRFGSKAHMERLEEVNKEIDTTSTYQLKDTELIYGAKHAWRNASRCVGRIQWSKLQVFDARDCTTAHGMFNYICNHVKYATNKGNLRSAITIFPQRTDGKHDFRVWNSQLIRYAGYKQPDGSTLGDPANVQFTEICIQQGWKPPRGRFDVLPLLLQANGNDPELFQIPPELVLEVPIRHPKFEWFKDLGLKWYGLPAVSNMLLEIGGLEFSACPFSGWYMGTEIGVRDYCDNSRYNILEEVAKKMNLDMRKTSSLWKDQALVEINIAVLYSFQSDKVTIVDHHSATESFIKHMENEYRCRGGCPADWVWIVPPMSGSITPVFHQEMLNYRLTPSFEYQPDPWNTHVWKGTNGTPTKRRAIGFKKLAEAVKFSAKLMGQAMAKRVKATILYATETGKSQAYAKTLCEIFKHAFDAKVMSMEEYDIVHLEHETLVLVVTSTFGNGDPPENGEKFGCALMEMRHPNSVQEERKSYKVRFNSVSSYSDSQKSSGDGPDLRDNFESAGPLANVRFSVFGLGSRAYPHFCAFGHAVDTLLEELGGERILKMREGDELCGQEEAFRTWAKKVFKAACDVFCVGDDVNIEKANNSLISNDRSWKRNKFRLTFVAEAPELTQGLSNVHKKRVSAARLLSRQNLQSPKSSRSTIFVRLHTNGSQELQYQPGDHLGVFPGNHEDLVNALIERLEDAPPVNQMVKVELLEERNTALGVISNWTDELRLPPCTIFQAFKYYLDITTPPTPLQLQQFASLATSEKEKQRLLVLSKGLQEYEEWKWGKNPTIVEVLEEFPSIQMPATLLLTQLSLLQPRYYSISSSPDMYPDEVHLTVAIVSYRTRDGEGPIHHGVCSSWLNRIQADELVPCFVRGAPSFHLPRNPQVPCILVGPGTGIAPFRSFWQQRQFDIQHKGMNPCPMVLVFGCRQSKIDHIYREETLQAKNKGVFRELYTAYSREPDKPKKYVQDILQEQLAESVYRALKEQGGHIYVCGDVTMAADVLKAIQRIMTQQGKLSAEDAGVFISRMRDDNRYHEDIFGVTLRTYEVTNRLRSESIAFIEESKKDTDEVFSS

IC50 (Nitric oxide synthase 1 [1])	IC50 (Nitric oxide synthase 3)	IC50 [2]	inhibition (Nitric oxide synthase 1 [3])	inhibition [4]	inhibition [5]	inhibition [6]	inhibition [7]	SMILES
45.7 µM	1680 µM	7.5 µM	–	–	–	–	–	CCCCCC1N=C(N)CC1C(F)(F)F (stereo in doubt; 23)
5.44 µM	392 µM	0.81 µM	–	–	–	–	–	CCCCCC1N=C(N)CC1C(F)(F)F (stereo in doubt; 14)
–	–	–	46%	64%	17%	–	–	CCCCCC1N=C(N)CC1(C)C (stereo unspecified)
9.8 µM	24.9 µM	10.2 µM	–	–	–	–	–	CC1CCC(N)=N1 (stereo unspecified)
–	–	–	47%	–	16%	26%	–	NC1=NC(Cc2ccccc2)CC1 (stereo unspecified)
4.7 µM	14.2 µM	1.4 µM	–	–	–	–	–	CC1CN=C(N)C1 (stereo unspecified)
2.53 µM	212 µM	0.23 µM	–	–	–	–	–	CCCCCC1N=C(N)CC1C(F)(F)F (stereo in doubt; 22)
0.17 µM	1.6 µM	0.17 µM	–	–	–	–	–	CCC1N=C(N)CC1C (stereo unspecified)
20.6 µM	578 µM	4.5 µM	–	–	–	–	–	CCCCCC1N=C(N)CC1C (stereo in doubt; 21)
11.2 µM	639 µM	14 µM	–	–	–	–	–	CC1CC(N)=NC1Cc1ccccc1 (stereo in doubt; 16)
0.85 µM	23.6 µM	0.66 µM	–	–	–	–	–	CCCCC1N=C(N)CC1C (stereo unspecified)
–	–	–	17%	–	–	12%	3%	CC1(C)CC(N)=NC1Cc1ccccc1 (stereo unspecified)
8.29 µM	458 µM	3 µM	–	–	–	–	–	CC1CC(N)=NC1Cc1ccccc1 (stereo in doubt; 11)
0.39 µM	3.5 µM	0.3 µM	–	–	–	–	–	CCCC1N=C(N)CC1C (stereo unspecified)
5.46 µM	29.8 µM	3.4 µM	–	–	–	–	–	CCC1CN=C(N)C1 (stereo unspecified)
5.37 µM	243 µM	0.36 µM	–	–	–	–	–	CCCCCC1N=C(N)CC1C (stereo in doubt; 10)
9.05 µM	336 µM	10 µM	–	–	–	–	–	CCCCCC1N=C(N)CC1C(F)(F)F (stereo in doubt; 13)
38.3 µM	2920 µM	74 µM	–	–	–	–	–	NC1=NC(Cc2ccccc2)C(C(F)(F)F)C1 (stereo in doubt; 18)
12.1 µM	1010 µM	22 µM	–	–	–	–	–	NC1=NC(Cc2ccccc2)C(C(F)(F)F)C1 (stereo in doubt; 17)
3.2 µM	226 µM	0.25 µM	–	–	–	–	–	CCCCCC1N=C(N)CC1C (stereo in doubt; 20)
3 µM	9.1 µM	11.3 µM	–	–	–	–	–	CC1CCN=C1N (stereo unspecified)
1.31 µM	47.5 µM	0.91 µM	–	–	–	–	–	CCCCCC1N=C(N)CC1C (stereo in doubt; 9)
